Measured values: patent US20180273534A1, “PYRAZOLOPYRIDINE SULFONAMIDES AS NEMATICIDES” (BAYER CROPSCIENCE AKTIENGESELLSCHAFT, priority 2014, published 2018)

What was measured:
Type in all cases: in vivo
[1] = tested on: Myzus persicae; experiment: Myzus persicae spray test; conditions: application rate 500 g/ha; after 6 days; sprayed Chinese cabbage leaf disks; 100% = all aphids killed
Method: Myzus Persicae—Spray Test
(§1) Solvent: 78.0 parts by weight acetone • 1.5 parts by weight dimethylformamide
(§2) Emulsifier: alkylarylpolyglycol ether
(§3) To produce a suitable preparation of active compound, 1 part by weight of active compound is mixed with the stated amount of solvents and is diluted with water, containing an emulsifier concentration of 1000 ppm, to the desired concentration. Further test concentrations are prepared by dilution with emulsifier containing water.
Chinese cabbage (Brassica pekinensis) leaf disks infected with all instars of the green peach aphid (Myzus persicae), are sprayed with a preparation of the active ingredient of the desired concentration.
After 6 days mortality in % is determined. 100% means all aphids have been killed and 0% means none of the aphids have been killed.

[2] = tested on: Tetranychus urticae; experiment: Tetranychus urticae spray test OP-resistant; conditions: application rate 500 g/ha, after 6 days, sprayed French bean leaf disks, 100% = all spider mites killed
Method: Tetranvechus urticae—spray test OP-resistant
as §1, §2, §3
French bean (Phaseolus vulgaris) leaf disks which are heavily infested with all stages of the two spotted spidermite (Tetranychus urticae), are sprayed with a preparation of the active ingredient of the desired concentration.
After 6 days mortality in % is determined. 100% means all spider mites have been killed and 0% means none of the spider mites have been killed.

[3] = tested on: Meloidogyne incognita; experiment: Meloidogyne incognita test (sand, salad seedlings, gall formation); conditions: application rate 20 ppm, after 14 days, 100% = no galls, 0% = galls equal to untreated control
Method: Meloidogyne Incognita—Test
Solvent: 125.0 parts by weight of acetone
To produce a suitable preparation of active compound, 1 part by weight of active compound is mixed with the stated amount of solvent, and the concentrate is diluted with water to the desired concentration.
Vessels are filled with sand, a solution of the active ingredient, a suspension containing eggs and larvae of the southern root-knot nematode (Meloidogyne incognita) and salad seeds. The salad seeds germinate and the seedlings grow. Galls develop in the roots.
After 14 days the nematicidal activity is determined on the basis of the percentage of gall formation. 100% means no galls were found and 0% means the number of galls found on the roots of the treated plants was equal to that in untreated control plants.

[4] = tested on: Meloidogyne incognita; experiment: Meloidogyne incognita test (soil drench, loamy sand, gall formation); conditions: application rate 8 ppm, after 21 days, salad seedlings, 100% = no galls
Method: Meloidogyne incognita—Test
Solvent: 7 parts by weight of dimethylformamide
Emulsifier: 2.5 parts by weight of alkylarylpolyglycolether
To produce a suitable preparation of active compound, 1 part by weight of active compound is mixed with the stated amount of solvent and emulsifier and is diluted with water to the desired concentration. In the calculation of the concentration the soil volume has to be included. […] Further test concentrations are prepared by dilution with water.
The compound solution is poured into pots filled with soil (loamy sand). A suspension containing eggs and larvae of the southern root-knot nematode (Meloidogyne incognita) is added, salad seeds are spread on the soil surface and covered with quartz sand. The salad seeds germinate and the seedlings grow. Galls develop on the roots.
After 21 days the nematicidal activity is determined on the basis of the percentage of gall formation. 100% means no galls were found; 0% means the number of galls found on the roots of the treated plants was equal to that in untreated control plants.

Compound | mortality [1] [%] | mortality [2] [%] | nematicidal activity on the basis of the percentage of gall formation [3] [%] | nematicidal activity on the basis of the percentage of gall formation [4] [%]
CS(=O)(=O)NC(=O)c1cc2c(Cl)cc(C(F)(F)F)cn2n1 [Example I-15] | 100 | 85 | 90 | 
O=C(NS(=O)(=O)c1ccccc1Cl)c1cc2cc(Cl)cc(Cl)n2n1 [Example I-46] | 90 |  | 90 | 
O=C(NS(=O)(=O)c1cc(Cl)ccc1Cl)c1cc2cc(Cl)cc(Cl)n2n1 [Example I-47] |  |  |  | 80
